These results are taken from a melting point compilation (Tetko et al.; mined from patent text by program, amines drawn as free bases though some values may be those of a salt).

The term melting point denotes the temperature, or range, at which the solid turns liquid.

SMILES strings stand for the structures.

For `CC(=O)Nc1cccc(-c2ccc(C)c(COc3cccc4ccc(C)nc34)c2C)c1`, the melting point is 197 to 199 °C.

Consider `O=C(Nc1ccc(N2CCN(C(=O)Nc3ccc(OCCO)cc3C(F)(F)F)CC2)cc1)Nc1ccccc1OC(F)F`, for which the melting point lay within 118 to 120 °C.

The compound `CN1C(=O)CN=C(c2ccc(O)cc2)c2cc(Cl)ccc21` had a melting point of 225 to 259 °C.

`CCN(C(=O)N(C)C)c1ccccc1-c1ccc2nnc(C)n2n1` registered a melting point of 138 to 140 °C. As for `O=C(NCCCN1CC=C(c2ccc(Cl)cc2)CC1)C(F)(F)F`, the figure is 105 to 107 °C. The value for `Cc1cc(-c2noc(C(F)(F)F)n2)cc(C)c1OCCCc1ccc(=O)[nH]c1` was 128 to 130 °C; that for `COCc1nc(C(C)(C)O)c(C(=O)O)n1Cc1ccc(-c2ccccc2C(=O)O)cc1` was 164 to 165 °C; that for `CCOC(=O)C1(C)C=C(O)c2c(sc3c2CCC2(C3)OCCO2)N1` (stereo not drawn) was 94 to 95 °C.

Consider `CC(C)c1nc(CN=[N+]=[N-])n(C)c1Sc1cc(Cl)cc(Cl)c1`, for which the melting point lay in the range of 84 to 85 °C. The value for `Cn1cc(C2=C(c3c4n(c5ccccc35)CCC4)C(=O)NC2=O)c2ccccc21` was 260 to 270 °C; that for `CC(=O)Oc1c(C)c2c(c(C)c1OC(C)=O)SC(C)O2` (stereo not drawn) was 82 to 84 °C. `Oc1c(CCCBr)ccc2ccccc12` displayed a melting point of 53 to 55 °C. As for `CNC(=S)NS(=O)(=O)c1cc2c(cc1OC)OCCC2CNC(=O)c1cc(Cl)ccc1OC` (single isomer, unassigned; (+)), the figure is 201 °C; as for `CCCCCCCCOC(=O)NCC1CCC(CNC(=O)OCCCCCCCC)CC1` (stereo not drawn), 120 to 122 °C; as for `O=C(CCCCl)Nc1ccnn1-c1c(Cl)cc(C(F)(F)F)cc1Cl`, 103 to 104 °C. As for `CS(=O)(=O)c1ccc(-c2cnn(CC(F)(F)F)c(=O)c2SC2CCCCC2)cc1`, the figure is 165 to 167 °C; as for `CCOC(=O)N1CCC(n2ccc3ccccc32)CC1`, 127 °C. As for `CCn1c(C)c(C2(N(c3ccccc3)c3ccccc3C(=O)OC)OC(=O)c3ccccc32)c2ccccc21` (stereo not drawn), the figure is 80 to 115 °C. Compound `CN(CCO)c1cc(C(c2cc(F)ccc2F)S(=O)(=O)c2ccc(Cl)cc2)c(Cl)cn1` (stereo not drawn) registered a melting point of 88 to 89 °C. The compound `Cc1c(I)ccc2c1C(=O)NS2(=O)=O` showed a melting point of 257 to 258 °C. The value for `Cc1ccc(NC(=O)c2cc(Cl)ccc2NCC2CCN(C3CCSCC3)CC2)nc1` was 173 to 176 °C. As for `COc1ccc2c(c1C)CCCC2=O`, the figure is 103 to 105 °C. The value for `COc1ccncc1-c1cccc(OC2SCC(O)C(O)C2O)c1` (stereo not drawn) was 195 °C; that for `CCCNC(=O)NS(=O)(=O)c1ccccc1Br` was 218 to 219 °C; that for `N#Cc1ccc(C(=O)[C@H]2C[C@H]2C(=O)O)cc1` (relative stereo) was 180 to 182 °C. In turn, `CCc1c(-c2ccc(O)cc2)c2ccc3c(N)ccc1n32` displayed a melting point of 147 to 149 °C.

`O=C1CCC(N2C(=O)c3ccc([N+](=O)[O-])cc3C2=O)C(=O)N1` (stereo not drawn) came in with a melting point of 228 to 230 °C. As for `CN1CCNC(=O)C1c1ccc(N)cc1` (stereo not drawn), the figure is 153 to 154 °C; as for `COC(=N)c1sc2ccccc2c1O`, 201 °C. As to `O=C(O)COc1cccc2c1CCc1sc(SCc3ccccc3)nc1-2`, the melting point was 180 to 182 °C. As for `CCCCSc1ccc(C(O)CNC2CCCCC2)cc1C` (stereo not drawn), the figure is 136 °C; as for `c1ccc2c(SCc3ccncc3)ncnc2c1`, 117 to 118 °C. As for `CCCCc1oc2ccccc2c1C(=O)N(C)Cc1ccc2c(Br)c(OCc3nnn[nH]3)ccc2c1`, the figure is 190 to 194 °C; as for `Cc1c(C(=O)Nc2ccc(N3CCNCC3)c(C#N)c2)cnn1-c1ccc(F)cc1`, 218 to 219 °C; as for `O=C(O)C1=CCC(c2ccccc2)(c2ccccc2)CC1`, 227 to 229 °C. As for `CNC(=O)OCC(F)(F)Cn1nc(C)c(-c2ccc3c(c2)NC(=O)CO3)c1-c1ccc(F)cc1`, the figure is 112 °C; as for `Cc1ccccc1C(C)Oc1cc(OCc2ccccc2)ccc1C(=O)O` (stereo not drawn), 110 to 113 °C. `OC(c1ccc(F)cc1)C1(n2cncn2)CC1` (stereo not drawn) yielded a melting point of 104 to 106 °C.

Compound `NC1=NC(c2cccc(-c3cccnc3F)c2)(c2cnn(CC(F)(F)F)c2)C2=NCCCN12` (stereo not drawn) registered a melting point of 106 to 116 °C. The value for `Cc1ccc(N2C(=O)C(O)=C(C(=O)c3ccc(C(C)C)cc3)C2c2ccc(OC(C)C)cc2)nn1` (stereo not drawn) was 280 to 281 °C; that for `O=C(O)CCCCN1CCC(Cc2ccccc2)CC1` was 148 to 151 °C. The value for `COc1ccc2c(c1)C(Cc1ccnc(F)c1)(Cc1ccnc(F)c1)c1ccccc1C2=O` was 155 to 157 °C; that for `CC1(C)SC2C(NC(=O)Nc3ccccc3)C(=O)N2C1c1nnn[nH]1` (stereo not drawn) was 110 to 120 °C; that for `c1ccc2c(OC[C@H]3CCCN3c3ncnc4[nH]cnc34)ccc(CN3CCOCC3)c2c1` was 134 to 138 °C. The value for `O=C(Nc1nccs1)C(CC1CCCC1)c1ccc(Br)cc1` (stereo not drawn) was 201 to 202 °C; that for `CCOc1ccc(C(=O)CCC(=O)Nc2cn(Cc3ccccc3)nc2-c2ccccc2)cc1` was 138 to 141 °C; that for `COc1ccc(C2(CCN3CCC(C(=O)c4nc5ccccc5s4)CC3)CCN(C(=O)c3ccccc3)C2)cc1OC` (stereo not drawn) was 74 to 76 °C. `CNC(=O)Cc1c(-c2ccc(C)cc2)nn2cccnc12` came in with a melting point of 207 to 208 °C. The compound `CC(=NOCc1ccccc1-n1c(Cl)nn(C)c1=O)c1cccc(C(F)(F)F)c1` returned a melting point of 95 to 97 °C. As for `CC1(n2cc(C(=O)O)c(=O)c3cc(F)c(F)c(F)c32)CC1`, the figure is 292 to 294 °C.

On to `Nc1nc2c(=O)c3cc(Cl)ccc3oc2cc1-c1nnn[nH]1`, for which the melting point was above 300 °C.

Turning to `COC1(N(C)C)C=CC(C(=O)Nc2ccccc2)=CC1` (stereo not drawn), the melting point came to 173 °C.

`CCN1c2ncc(CCc3ccncc3)cc2C(=O)N(C)c2ccc(F)nc21` displayed a melting point of 109 to 111 °C. As for `CC(C)c1cccc(C(C)C)c1NC(=O)CN1CCN(CCSc2nc3cccc(-c4cc[nH]n4)c3o2)CC1`, the figure is 181 to 183 °C; as for `COc1ccc(C(=O)Nc2ccccc2)cc1NCc1cccc(C#N)c1`, 172 to 174 °C; as for `O=Cc1ccc2nc3c(cc2c1)-c1cccc2cccc-3c12`, 245 to 246 °C. The value for `c1ccc(SCc2cc3ccccc3[nH]2)cc1` was 100 to 102 °C. As for `N#Cc1ccc(-c2cn(-c3ccc(I)cc3)c(SCC(O)CO)n2)cc1` (stereo not drawn), the figure is 160 to 174 °C; as for `COc1cc2c(cc1OC)C(C(CO)CO)N(C(=O)c1ccccc1)CC2` (stereo not drawn), 161 to 163 °C. As for `CC(=O)N1CC[C@H]2Cc3ccccc3[C@@H](c3ccccc3)N2CC1` (racemic), the melting point lay within 145 to 147 °C. As for `CCCCOCCOc1ccc(-c2ccc(N(C)CCOC)c(C=CC(=O)O)c2)cc1`, the figure is 86.4 to 87.4 °C; as for `N#CSc1cc(Cl)c(Cl)c2sc(NC(=O)Nc3ccc(Br)cc3)nc12`, 243 to 245 °C; as for `COCc1cn(-c2cccc(C(F)(F)F)c2)nc(C(=O)N(C)OC)c1=O`, 157 to 159 °C. As for `CN(C)C=C1C(=O)CCc2c1cnn2C`, the figure is 94 to 100 °C; as for `COc1ccc(NC(=O)c2ccc(COc3ccc4c(c3)CCC(CCN3CCCCC3)C4)cc2)cc1OC` (stereo not drawn), 178 to 180 °C. The value for `Cc1cc(=O)oc2nn(Cc3cccs3)c(C)c12` was 164 to 167 °C. Turning to `COC1c2c(ccc3cnn(CC(C)N)c23)OCC1O` (stereo not drawn), the melting point is 105 to 108 °C. As for `Cc1nc2c(OCc3c(Cl)ccc(N(C)C(=O)Oc4ccc([N+](=O)[O-])cc4)c3Cl)cccn2c1Br`, the melting point was in the range of 229 to 230 °C. The value for `COCc1nnc(-c2cccnc2)n1-c1c(C)c(Cl)cc2[nH]c(=O)c(=O)[nH]c12` was above 300 °C; that for `CCCC(C)(O)C(=O)Nc1cc(Br)nc(OC)c1` (stereo not drawn) was 122 °C.

In the case of `Nc1cc(F)ccc1C(=O)NCCN1CCC(n2c(=O)[nH]c3ccccc32)CC1`, the melting point turned out to be 229 °C. The value for `O=C(C1CCCC1)N1c2ccccc2CCC1CN1CCN(c2cccc3[nH]ccc23)CC1` (stereo not drawn) was 150 to 153 °C. Turning to `Cc1c(C)c2c(c(C)c1O)C(c1ccc(N3CCN(C)CC3)cc1)C(C)(C)O2` (stereo not drawn), the melting point was 159 to 161 °C.

In turn, `O=C(O)C1(CSCc2ccccc2)Cc2ccccc2O1` (stereo not drawn) displayed a melting point of 125 to 127 °C. As for `CS(=O)(=O)c1ccc(-c2cc(C(CCCO[N+](=O)[O-])=NO)nn2C2CCCCC2)cc1`, the figure is 121 to 123 °C; as for `Cc1nnc(-c2ccc3ncn(-c4ccc(OC(F)F)cc4)c3c2)o1`, 154 to 155 °C. As for `COc1cccc2c1oc1ccccc12`, the figure is 49 to 50 °C; as for `CC(C)OC(C)c1cc2c(=O)n(NS(C)(=O)=O)c(=O)[nH]c2cc1C(F)(F)F` (stereo not drawn), 110 to 115 °C; as for `ON=Cc1ccc(Sc2ccccc2)cc1`, 74 to 76 °C.

Turning to `Cc1cc(C)c2c(c1)OC(C)(COc1ccc([N+](=O)[O-])cc1)CC2=O` (stereo not drawn), the melting point fell in the range of 86 to 88.5 °C. Compound `CC12CCC(O)CC1CCC1C2CCC2(C)C(OCCO)CCC12` (stereo not drawn) yielded a melting point of 181 to 183 °C. Compound `CCCn1c(=O)n(-c2ccc3c(c2)OCO3)c2ncccc21` returned a melting point of 112 to 114 °C.

`CCC(Oc1ccc(Cl)c(C(F)(F)F)c1)C(=O)NCc1ccccc1` (stereo not drawn) yielded a melting point of 93 to 95 °C. The value for `O=Cc1c(N2CCNCC2)n(-c2ccccc2)c2ccccc12` was 175 °C; that for `N#CC1=CSCC1Nc1c(Cl)cccc1Cl` (stereo not drawn) was 170 to 173 °C; that for `BrCCc1cc(Br)c(CCBr)cc1Br` was 106 to 108 °C. The value for `CCCC(=O)c1cnc2ccc(COC(=O)c3ccccc3)cc2c1Nc1ccccc1C` was 142 to 144 °C. In the case of `CCOC(=O)c1cnn2c1nc(NCCCN(C)C)c1cnc3c(cnn3CC)c12`, the melting point lay within 212 to 215 °C.
